The values that follow are results of earlier work, collected in patent publication US20230172854A1 (UNIWERSYTET HUMANISTYCZNO-PRZYRODNICZY IM JANA DLUGOSZA W …, priority 2020, published 2023).

The conditions of this data set: estimated.

For orientation: bioavailability means dose-corrected exposure relative to a reference, in per cent. On to `CCCCC(=O)N(Cc1ccc(-c2ccccc2-c2nnn[nH]2)cc1)[C@H](C(=O)O)C(C)C` [valsartan], for which the bioavailability is listed as 25%.
